Measurements: patent US5985916A, “Polymer-platinum compounds” (Access Pharmaceuticals, Inc., priority 1998, dated 1999)

Tests used:
[1] = test system: L1210 intraperitoneal tumor; test: L1210 i.p. tumor model in mice (survival and toxic deaths); assay type: in vivo, mice (DBA2)
Procedure: The data in Table 3 is expressed as the ratio of the mean survival time of treated animals to the mean survival time of the untreated control animals×100 (T/C).
10^6 viable cells were administered to DBA2 mice (male 9-12 weeks, 20-30 g) i.p. on day 0. […] Animals were weighed daily and observed twice a day for signs of tumor progression and sacrificed if their body weight fell below 80% of the starting weight or if other severe toxicological problems were seen. At the end of the experiment changes in gross anatomy were noted.

[2] = test system: B16 melanoma intraperitoneal tumor; test: B16 melanoma i.p. tumor model in mice (survival, toxic deaths, body weight); assay type: in vivo, mice (C57BL/6J); details: single i.p. dose
From the text: Male C57BL/6J mice were inoculated with 10^6 viable B16F10 cells intraperitoneally (i.p). […] Animals were monitored as described above.

[3] = background; cited from earlier work
[4] = test system: COR-L23 cells; test: In vitro cytotoxicity (MTT assay), COR-L23; assay type: cell-based; details: 50% decrease in cell viability
Procedure: (§1) The in vitro cytotoxicity of the polyamidoamine-platinum compounds was evaluated using the MTT assay described above and in Example 5.
(§2) The cell lines used, L132 (human embryonic lung cells), COR L23 (non-small cell lung cancer cells) and H69 (small cell lung cancer), were obtained from European Collection of Cell Cultures, Centre for Applied Biology, Microbiology and Research, Salisbury, Wiltshire UK.
(§3) Cells were cultured using standard conditions in microtitre plates.

[5] = test system: H69 cells; test: In vitro cytotoxicity (MTT assay), H69 small cell lung carcinoma; assay type: cell-based; details: 50% decrease in cell viability
Procedure: as §1, §2, §3

[6] = test system: L132 cells; test: In vitro cytotoxicity (MTT assay), L132; assay type: cell-based, human; details: 50% decrease in cell viability
Procedure: as §1, §2, §3

## N.N.[Cl][Pt][Cl] [Cisplatin, Cis-diamminedichloroplatinum(II)]
[1]; 2 mg/kg Pt
  T/C (mean survival time treated/control × 100): 171
[1]; 3 mg/kg Pt
  T/C (mean survival time treated/control × 100): 64
[2]; 5 mg/kg Pt
  T/C: 134
[2]; 10 mg/kg Pt
  T/C: 78
[3]
  excretion, in words: rapid excretion via the kidneys
[4]
  IC50, COR-L23: 7.38 ± 2.78 µg/mL
[5]
  IC50, H-69: 45.9 ± 20 µg/mL
[6]
  IC50, L132: 4.80 ± 1.29 µg/mL
